Here are results for three compounds from patent US4024121A, “(Pyro)-Glu-His-Trp-D-Ser-Tyr-D-Leu-Leu-Arg-Pro-NHR and intermediates” (priority 1976, dated 1977).

Test [1] has as its system LH-release. Description: LH-release in rats after subcutaneous injection (procedure of Arimura et al.). It is filed as in vivo. The conditions noted are these: 50 ng subcutaneously.
Test [2] deals with LH-RH activity. Briefly: LH-RH activity compared with the natural hormone.
The test system of test [3] is LH-RH activity. The conditions noted are these: literature reports; cited from earlier work.

Take `CC(C)C[C@H](NC(=O)CNC(=O)[C@H](Cc1ccc(O)cc1)NC(=O)[C@H](CO)NC(=O)[C@H](Cc1c[nH]c2ccccc12)NC(=O)[C@H](Cc1c[nH]cn1)NC(=O)[C@@H]1CCC(=O)N1)C(=O)N[C@@H](CCCNC(=N)N)C(=O)N1CCC[C@H]1C(=O)NCC(N)=O` [LH-RH, (pyro)-Glu-His-Trp-Ser-Tyr-Gly-Leu-Arg-Pro-Gly-NH2]: in test [1], the “duration of effect of the injection (LH release)” value is recorded as “no effects of the injection are observed after one hour” and the “time at which peak activity (LH release) is reached after injection” value was roughly 15 min.

Take `CC(C)C[C@H](NC(=O)CNC(=O)[C@H](Cc1ccc(O)cc1)NC(=O)[C@@H](CO)NC(=O)[C@H](Cc1c[nH]c2ccccc12)NC(=O)[C@H](Cc1c[nH]cn1)NC(=O)[C@@H]1CCC(=O)N1)C(=O)N[C@@H](CCCNC(=N)N)C(=O)N1CCC[C@H]1C(=O)NCC(N)=O` [[D-Ser^4]-LH-RH]: the “LH-RH activity relative to the natural hormone” value in test [2] is given as “less than 5%”. Turning to [D-Ala^6 ]-LH-RH, the “activity compared with LH-RH” value in test [3] is given as “more active than LH-RH”.
